Test results: the NIST ThermoML archive (doi:10.1021/je900596d)
± gives the expanded uncertainty stated by the source.

Conditions: Vibrating tube method

FC(F)=C(F)C(F)(F)F [hexafluoropropene]
Conditions | mass density [kg/m3]
357.01 K, 9852.5 kPa, Liquid | 1135.74 ± 1.2
357.01 K, 9892.6 kPa, Liquid | 1136.38 ± 1.2
357.01 K, 9933 kPa, Liquid | 1137.03 ± 1.2
357.01 K, 9973.2 kPa, Liquid | 1137.69 ± 1.2
357.06 K, 1.6 kPa, Fluid (supercritical or subcritical phases) | 0.18 ± 0.03
357.06 K, 3.4 kPa, Fluid (supercritical or subcritical phases) | 0.25 ± 0.03
357.06 K, 4.2 kPa, Fluid (supercritical or subcritical phases) | 0.26 ± 0.03
357.06 K, 4.9 kPa, Fluid (supercritical or subcritical phases) | 0.29 ± 0.03
357.06 K, 6.3 kPa, Fluid (supercritical or subcritical phases) | 0.31 ± 0.03
357.06 K, 6.6 kPa, Fluid (supercritical or subcritical phases) | 0.32 ± 0.03
357.06 K, 7 kPa, Fluid (supercritical or subcritical phases) | 0.35 ± 0.03
357.06 K, 7.4 kPa, Fluid (supercritical or subcritical phases) | 0.43 ± 0.03
357.06 K, 9.1 kPa, Fluid (supercritical or subcritical phases) | 0.47 ± 0.03
357.06 K, 9.5 kPa, Fluid (supercritical or subcritical phases) | 0.49 ± 0.03
357.06 K, 11 kPa, Fluid (supercritical or subcritical phases) | 0.56 ± 0.03
357.06 K, 12.4 kPa, Fluid (supercritical or subcritical phases) | 0.6 ± 0.03
357.06 K, 13.5 kPa, Fluid (supercritical or subcritical phases) | 0.66 ± 0.03
357.06 K, 14.9 kPa, Fluid (supercritical or subcritical phases) | 0.76 ± 0.03
357.06 K, 15.9 kPa, Fluid (supercritical or subcritical phases) | 0.79 ± 0.03
357.06 K, 17 kPa, Fluid (supercritical or subcritical phases) | 0.85 ± 0.03
357.06 K, 19.1 kPa, Fluid (supercritical or subcritical phases) | 0.98 ± 0.03
357.06 K, 21.6 kPa, Fluid (supercritical or subcritical phases) | 1.08 ± 0.03
357.06 K, 22.7 kPa, Fluid (supercritical or subcritical phases) | 1.11 ± 0.03
357.06 K, 24 kPa, Fluid (supercritical or subcritical phases) | 1.15 ± 0.03
357.06 K, 25.1 kPa, Fluid (supercritical or subcritical phases) | 1.25 ± 0.03
357.06 K, 26.3 kPa, Fluid (supercritical or subcritical phases) | 1.3 ± 0.03
357.06 K, 27.3 kPa, Fluid (supercritical or subcritical phases) | 1.36 ± 0.03
357.06 K, 28.4 kPa, Fluid (supercritical or subcritical phases) | 1.4 ± 0.03
357.06 K, 29.7 kPa, Fluid (supercritical or subcritical phases) | 1.46 ± 0.03
357.06 K, 30.8 kPa, Fluid (supercritical or subcritical phases) | 1.51 ± 0.03
357.06 K, 31.8 kPa, Fluid (supercritical or subcritical phases) | 1.61 ± 0.03
357.06 K, 34 kPa, Fluid (supercritical or subcritical phases) | 1.66 ± 0.03
357.06 K, 35.1 kPa, Fluid (supercritical or subcritical phases) | 1.71 ± 0.03
357.06 K, 36.4 kPa, Fluid (supercritical or subcritical phases) | 1.75 ± 0.03
357.06 K, 37.5 kPa, Fluid (supercritical or subcritical phases) | 1.84 ± 0.03
357.06 K, 38.5 kPa, Fluid (supercritical or subcritical phases) | 1.93 ± 0.03
357.06 K, 39.6 kPa, Fluid (supercritical or subcritical phases) | 1.96 ± 0.03
357.06 K, 40.6 kPa, Fluid (supercritical or subcritical phases) | 2.02 ± 0.03
357.06 K, 48 kPa, Fluid (supercritical or subcritical phases) | 2.38 ± 0.03
357.06 K, 58.6 kPa, Fluid (supercritical or subcritical phases) | 2.86 ± 0.03
357.06 K, 69.5 kPa, Fluid (supercritical or subcritical phases) | 3.37 ± 0.03
357.06 K, 80.9 kPa, Fluid (supercritical or subcritical phases) | 3.92 ± 0.03
357.06 K, 92.8 kPa, Fluid (supercritical or subcritical phases) | 4.57 ± 0.03
357.06 K, 104.1 kPa, Fluid (supercritical or subcritical phases) | 5.19 ± 0.03
357.06 K, 115 kPa, Fluid (supercritical or subcritical phases) | 5.66 ± 0.03
357.06 K, 125.7 kPa, Fluid (supercritical or subcritical phases) | 6.22 ± 0.03
357.06 K, 136.4 kPa, Fluid (supercritical or subcritical phases) | 6.83 ± 0.03
357.06 K, 148.3 kPa, Fluid (supercritical or subcritical phases) | 7.41 ± 0.04
357.06 K, 159.2 kPa, Fluid (supercritical or subcritical phases) | 8.05 ± 0.04
357.06 K, 170 kPa, Fluid (supercritical or subcritical phases) | 8.65 ± 0.04
357.06 K, 180.8 kPa, Fluid (supercritical or subcritical phases) | 9.19 ± 0.04
357.06 K, 191.6 kPa, Fluid (supercritical or subcritical phases) | 9.77 ± 0.04
357.06 K, 206.8 kPa, Fluid (supercritical or subcritical phases) | 10.67 ± 0.04
357.06 K, 232.7 kPa, Fluid (supercritical or subcritical phases) | 11.91 ± 0.04
357.06 K, 245.6 kPa, Fluid (supercritical or subcritical phases) | 12.63 ± 0.04
357.06 K, 258.5 kPa, Fluid (supercritical or subcritical phases) | 13.31 ± 0.04
357.06 K, 271.2 kPa, Fluid (supercritical or subcritical phases) | 14.01 ± 0.04
357.06 K, 284 kPa, Fluid (supercritical or subcritical phases) | 14.69 ± 0.04
357.06 K, 296.8 kPa, Fluid (supercritical or subcritical phases) | 15.39 ± 0.04
357.06 K, 309.5 kPa, Fluid (supercritical or subcritical phases) | 16.12 ± 0.04
357.06 K, 322.1 kPa, Fluid (supercritical or subcritical phases) | 16.71 ± 0.04
357.06 K, 334.9 kPa, Fluid (supercritical or subcritical phases) | 17.44 ± 0.04
357.06 K, 347.5 kPa, Fluid (supercritical or subcritical phases) | 18.11 ± 0.04
357.06 K, 360.2 kPa, Fluid (supercritical or subcritical phases) | 18.86 ± 0.04
357.06 K, 372.7 kPa, Fluid (supercritical or subcritical phases) | 19.48 ± 0.04
357.06 K, 385.4 kPa, Fluid (supercritical or subcritical phases) | 20.16 ± 0.04
357.06 K, 401.9 kPa, Fluid (supercritical or subcritical phases) | 21.1 ± 0.04
